Data published in publication PMC5569447 (Iranian Journal of Basic Medical Sciences, 2017).
Peptide text beside a SMILES is read from it.

The compounds below were run on Mtb strain H37Rv ATCC 27294. Details: 24 h.

Row | SMILES | MABA MIC [µM]
1 | CC(C)[C@H](NC(=O)CN)C(=O)N1CCC[C@H]1C(=O)NCC(=O)O [GVPG, glycine-valine-proline-glycine] (H-GVPG-OH) | 200
2 | N=C(N)NCCC[C@H](NC(=O)[C@@H]1CCCN1)C(=O)NCC(=O)O [PRG] (H-Pro-Arg-Gly-OH) | >800
3 | N=C(N)NCCC[C@H](NC(=O)[C@@H]1CCCN1)C(=O)N1CCC[C@H]1C(=O)O [PRP] (H-Pro-Arg-Pro-OH) | >800
4 | CC(C)[C@H](NC(=O)[C@@H](NC(=O)[C@@H]1CCCN1)[C@@H](C)O)C(=O)O [PTV] (H-Pro-Thr-Val-OH) | >800
5 | C[C@@H](O)[C@H](NC(=O)[C@@H](N)CCC(N)=O)C(=O)N[C@@H](CCC(N)=O)C(=O)O [QTQ] (H-Gln-Thr-Gln-OH) | >800
6 | N=C(N)NCCC[C@H](NC(=O)[C@@H]1CCCN1C(=O)[C@@H](N)CCCNC(=N)N)C(=O)O [RPR, arginine-proline-arginine] (H-Arg-Pro-Arg-OH) | 200
7 | N[C@@H](CO)C(=O)NCC(=O)N1CCC[C@H]1C(=O)O [SGP] (H-Ser-Gly-Pro-OH) | >800
8 | N=C(N)NCCC[C@H](NC(=O)[C@@H]1CCCN1C(=O)[C@@H](N)CO)C(=O)O [SPR] (H-Ser-Pro-Arg-OH) | >800
9 | N=C(N)NCCC[C@H](NC(=O)[C@@H](N)CO)C(=O)N1CCC[C@H]1C(=O)O [SRP] (H-Ser-Arg-Pro-OH) | >800
